{
  "source": "patent EP2077274A1",
  "about": "“Synthetic analogs of human beta-defensins having antimicrobial, antiviral and chemotactic activity” (Ceinge Biotecnologie Avanzate s.c. a r.l., priority 2008, dated 2009)",
  "key": {"P.aeruginosa ATCC 27853": {"test_system": "P.aeruginosa ATCC 27853", "assay": "Colony-forming unit (CFU) assay of antibacterial activity with NaCl dependence", "type": "cell-based", "experimental": "(§1) Colony-forming unit (CFU) assay of the antibacterial activity of the peptides against P.aeruginosa ATCC (American Type Culture Collection, Manassas, VA, USA) 27853, Enterococcus faecalis ATCC 29212 and Escherichia coli ATCC 25922 was performed. The strains were grown in aerobic conditions in tryptic soy broth (Difco Laboratories, Detroit, MI, USA) at 37°C. Cells from exponential-phase cultures were centrifuged, washed and suspended to a density of 1 x 10^5 CFU/mL in sterile 10 mM potassium phosphate buffer, pH 7.4, and incubated in the presence of the peptides. The incubation time was 2 h at 37°C. […] For salt dependence assay, NaCl in a range of concentrations potentially present in the airway surface fluid of normal subjects and CF patients (33), i.e., 0, 50, 100 and 200 mM NaCl, were included in the incubation buffer. The cells were then diluted serially in the same buffer, spread on tryptone-yeast (Difco Laboratories) plates and the colonies were counted after 18 h at 37°C. Each assay was performed in triplicate. Bactericidal activity (mean and SD of three assays) is expressed as the ratio between colonies counted and the number of colonies on a control plate."}, "[1]": {"test_system": "Enterococcus faecalis ATCC 29212", "assay": "Colony-forming unit (CFU) assay of antibacterial activity with NaCl dependence", "type": "cell-based", "settings": "200 mM NaCl compared to absence of salt", "experimental": "as §1"}, "[2]": {"test_system": "Escherichia coli ATCC 25922", "assay": "Colony-forming unit (CFU) assay of antibacterial activity with NaCl dependence", "type": "cell-based", "settings": "200 mM NaCl compared to absence of salt", "experimental": "as §1"}, "monocytes": {"test_system": "monocytes", "assay": "Chemotaxis assay (leukocyte migration, calcein fluorescence)", "type": "cell-based, human", "experimental": "(§2) Preparation of leukocytes-Monocytes and neutrophils were isolated as described in the StemSep Cell Technical Manual (Stem Cell Technologies, Vancouver, Canada). Briefly, to obtain neutrophils, buffy coats were diluted 1:20 in NH4Cl supplemented with 2 mM EDTA and incubated on ice for 20 min. Cell suspensions were centrifuged for 10 min at 600 X g at room temperature with the brake off and washed three times with phosphate buffered saline (PBS) supplemented with 2% foetal bovine serum and 2 mM EDTA. Cell viability was assessed by analysis of light scatter properties, and cell count was performed using a logical gate strategy based on Trucount tubes (Becton-Dickinson, San Jose, CA, USA). Neutrophils were purified from lysed buffy coats using StemSep negative selection system. To this purpose, 100x10^6 mononuclear cells from lysed buffy coats were incubated with 100 µL of custom antibody cocktail for human granulocytes enrichment (Stem Cell Technologies) for 45 min on ice. In addition, cell suspensions were incubated with 60 µL of magnetic colloid for 30 minutes on ice. Finally, the samples were run through a 0.3-inch column matrix in a negative selection system in which the unwanted cells were immunomagnetically labelled and bound to the magnetic column. Neutrophils, after the separation, were collected in the column flowthrough without antibody bound to their surface. In order to obtain monocytes, human buffy coats were layered over a Ficoll-Paque density gradient and spun at 600 X g for 30 min with the brake off. The mononuclear cell-rich fractions were washed three times with PBS supplemented with 2% foetal bovine serum (FBS) and 2 mM EDTA. Cell viability was assessed by analysis of light scatter properties, and cell count was performed using a logical gate strategy based on Trucount tubes (Becton-Dickinson). A custom antibody cocktail for human monocyte enrichment (Stem Cells Technologies) was used for immunomagnetic negative selection of monocytes. Mononuclear cells were incubated as above described for neutrophils. Both neutrophils and monocytes were resuspended in 5.0 mL of RPMI-1640 (Sigma-Aldrich, St Louis, MO, USA) without phenol red containing 10% heat-treated FBS. Calcein AM (Molecular Probes, Eugene, OR, USA) was added to the cell suspensions (5.0 mL) at a concentration of 5 µg/mL and the cells were incubated for 30 min at 37°C. Cell suspensions were washed twice with PBS and then resuspended in RPMI-FBS to the desired concentration.\n(§3) Measurement of leukocytes migration-The chemotaxis assay of monocytes and neutrophils (90-95% of purity) was performed in 96-well disposable chemotaxis chambers (Neuroprobe, Gaithersburg, MD, USA) using polyvinyl-pyrrolidone-free polycarbonate membranes with an […] pore size for monocytes and with a […] pore size for neutrophils. Chemotaxis was measured by fluorescence detection, using the calcein fluorescence signal. The fluorescence was read in a microplate fluorescence reader (Victor 3 1420 Multilabel Counter, Perkin Elmer) with excitation/emission wave-length settings of 485/530 nm. We calculated the migration index as the ratio between the sample mean fluorescence (after subtraction of the negative control mean fluorescence)/positive control mean fluorescence. Each assay was performed in quadruplicate."}, "neutrophils": {"test_system": "neutrophils", "assay": "Chemotaxis assay (leukocyte migration, calcein fluorescence)", "type": "cell-based, human", "experimental": "as §2, §3"}, "HSV-1": {"test_system": "HSV-1", "assay": "HSV-1 infectivity plaque assay on Vero cell monolayers (co-exposure, virus pre-treatment, cell pre-exposure)", "type": "cell-based", "settings": "for % of infectivity: peptide 20 µM, mean and SD of 3 replicates", "experimental": "Vero cells were grown in Dulbecco's modified Eagle's medium (DMEM) supplemented with 10% foetal calf serum. HSV-1 carrying a IacZ gene driven by the cytomegalovirus (CMV) IE-1 promoter to express beta-galactosidase was propagated as described (33). Peptides were dissolved in DMEM with serum and used at different concentrations. All experiments were conducted in parallel with scrambled peptides and no-peptide controls. […] Non-penetrated viruses were inactivated by citrate buffer at pH 3.0 after the 45 min incubation with cells at 37°C. The cells were then incubated for 48 h at 37°C in DMEM supplemented with carboxymethylcellulose (CMC). Monolayers were fixed, stained with 5-bromo-4-chloro-3-indolyl-beta-D-galactopyranoside (X-gal) and plaque numbers were scored. Experiments were performed in triplicate and the percentage of inhibition was calculated with respect to no-peptide control experiments. ii) For \"virus pre-treatment\" experiments, approximately 2 x 10^4 plaque forming units (PFU) of HSV-1 were incubated in the presence of 20 µM of peptides for 45 min at 37°C, then titrated on Vero cell monolayers. iii) For \"cell pre-exposure\" experiments, Vero cells were incubated with 20 µM of peptides for 30 min at 4°C. Peptides were removed, and cells were washed with phosphate-buffered saline before being infected with serial dilutions of HSV-1 and incubated for 45 min at 37°C.\nMonolayers were exposed to different concentrations (10, 50, 100, 250 and 500 µM) of each peptide for 24 h, and cell viability was evaluated with the LDH assay. There was no significant difference between the viability of cells exposed to the peptides and that of cells exposed to control (data not shown). Thus, we evaluated the antiviral activity of wild type peptides and their analogs in: co-exposure experiments (cell + virus + peptide at zero time); virus pre-treatment (virus + peptide incubation before cell infection); and cell pre-exposure (cell + peptide incubation before virus infection). This would allow to evaluate if, and in which phase, the peptides could inhibit the virus infectivity.\nFor co-exposure experiments, we incubated the peptides on the monolayers of Vero cells together with the virus inoculum for 45 min before low pH treatment. The reduced form of wild-type hBD1 and hBD3 and analogs 1C, 1 N, 3C, 3N were used in all subsequent experiments. […] No control (peptide excluded) inhibited HSV-1 infectivity under similar experimental conditions."}},
  "note": "No end group written: not given here.",
  "data": [
    {"substance": "GIINTLQKYYCRVRGGRCAVLSCLPKEEQIGKCSTRGRKCCRRKK-OH (cysteines drawn unpaired) [hBD3 wt, reference compound]", "values": [
      {"measurement": "antibacterial activity, effect of NaCl", "setting": "P.aeruginosa ATCC 27853; peptide 2.5 µM, 50 mM NaCl versus 0 mM NaCl", "result": "unaffected"},
      {"measurement": "antibacterial activity, effect of NaCl", "setting": "P.aeruginosa ATCC 27853; peptide 2.5 µM, 100 mM NaCl versus 0 mM NaCl, p<0.01", "result": "slightly inhibited"},
      {"measurement": "antibacterial activity, effect of NaCl", "setting": "P.aeruginosa ATCC 27853; peptide 2.5 µM, 200 mM NaCl versus 0 mM NaCl, p<0.001", "result": "greatly inhibited"},
      {"measurement": "antibacterial activity, effect of NaCl", "setting": "P.aeruginosa ATCC 27853; peptide 12.5 µM, 200 mM NaCl versus 0 mM NaCl, p<0.001", "result": "strongly inhibited"},
      {"measurement": "antibacterial activity, effect of NaCl", "setting": "[1]", "result": "significantly inhibited"},
      {"measurement": "antibacterial activity, effect of NaCl", "setting": "[2]", "result": "significantly inhibited"},
      {"measurement": "chemotactic activity, effect of NaCl", "setting": "monocytes; 200 mM NaCl", "result": "comparable to that obtained at 100 mM NaCl"},
      {"measurement": "chemotactic activity, effect of NaCl", "setting": "monocytes; NaCl between 100 and 150 mM, p<0.001", "result": "significantly increased"},
      {"measurement": "chemotactic activity compared to wild-type hBD1", "setting": "monocytes; peptide 1.25 µM", "result": "significantly higher"},
      {"measurement": "chemotactic activity, effect of NaCl", "setting": "neutrophils; NaCl from 100 to 150 mM, p<0.001", "result": "significantly reduced"},
      {"measurement": "chemotactic activity compared to wild-type hBD1", "setting": "neutrophils; peptide 1.25 µM", "result": "significantly lower activity"},
      {"measurement": "% of infectivity", "setting": "HSV-1; cell pre-exposure", "result": "14.5±2.3", "unit": "%"},
      {"measurement": "% of infectivity", "setting": "HSV-1; co-exposure", "result": "23.4±2.5", "unit": "%"},
      {"measurement": "inhibition of HSV infectivity", "setting": "HSV-1; co-exposure, peptide 50 µM, reduced form", "result": 100, "unit": "%"},
      {"measurement": "% of infectivity", "setting": "HSV-1; virus pre-incubation", "result": "45±1.5", "unit": "%"}
    ]}
  ]
}
